Measurements: patent US10294217B2, “Fluoroindole derivatives as muscarinic M1 receptor positive allosteric modulators” (Suven Life Sciences Limited, priority 2015, dated 2019)
Counter-ions that a name gives are not always drawn.

Molecular target: human Muscarinic M1 receptor (Homo sapiens (Human), UniProt P11229)
Assay: Allosteric potency EC50 for muscarinic M1 receptor (CHO cells, pCRE-Luc reporter)
Assay type: cell-based
Conditions: hM1 PAM EC50, in presence of EC20 of acetylcholine; luciferase activity, 4 hours
Experimental: Determination of Allosteric Potency EC50 Values for Muscarinic M1 Receptor:
A stable CHO cell line expressing recombinant human Muscarinic M1 receptor and pCRE-Luc reporter system was used for cell-based assay. The assay offers a non-radioactive based approach to determine binding of a compound to GPCRs. In this specific assay, the level of intracellular cyclic AMP which is modulated by activation or inhibition of the receptor is measured. The recombinant cells harbor luciferase reporter gene under the control of cAMP response element.
The above cells were grown in 96 well clear bottom white plates in Hams F12 medium containing 10% fetal bovine serum (FBS). Prior to the addition of compounds or standard agonist, cells were serum starved overnight. Increasing concentrations of test compounds were added along with EC20 of acetylcholine in OptiMEM medium to the cells. The incubation was continued at 37° C. in CO2 incubator for 4 hours. Medium was removed and cells were washed with phosphate buffered saline. The cells were lysed and luciferase activity was measured in a Luminometer. Luminescence units were plotted against the compound concentrations using Graphpad software. EC50 values of the compounds were defined as the concentration required in stimulating the luciferase activity by 50% in presence of EC20 of acetylcholine and the results are provided in table 1.

Compound | EC50 [nM]
O=C(N[C@H]1CCNC[C@H]1F)c1cn(Cc2ccnc(Cl)c2)c2c(F)ccc(F)c12 (racemic) [Example 28, cis-N-(3-Fluoropiperidin-4-yl)-1-(2-chloropyridin-4-ylmethyl)-4,7-difluoro-1H-indole-3-carboxamide hydrochloride (Racemate)] | 1570
O=C(N[C@@H]1CCNC[C@H]1F)c1cn(Cc2ccnc(F)c2)c2c(F)ccc(F)c12 (single isomer, unassigned; isomer-i) [Example 24, trans-N-(3-Fluoropiperidin-4-yl)-1-(2-fluoropyridin-4-ylmethyl)-4,7-difluoro-1H-indole-3-carboxamide hydrochloride (Isomer-I)] | 1390
O=C(N[C@H]1CCNC[C@H]1F)c1cn(Cc2ccncc2F)c2c(F)ccc(F)c12 (single isomer, unassigned; isomer-i) [Example 26, cis-N-(3-Fluoropiperidin-4-yl)-1-(5-fluoropyridin-4-ylmethyl)-4,7-difluoro-1H-indole-3-carboxamide hydrochloride (Isomer-I)] | 1100
O=C(N[C@H]1CCNC[C@H]1F)c1cn(Cc2ccnc(Cl)c2)c2cccc(F)c12 (single isomer, unassigned; isomer-i) [Example 27, cis-N-(3-Fluoropiperidin-4-yl)-1-(2-chloropyridin-4-ylmethyl)-4-fluoro-1H-indole-3-carboxamide hydrochloride (Isomer-I)] | 1690
O=C(N[C@H]1CCNC[C@H]1F)c1cn(Cc2ccnc(Cl)c2)c2c(F)ccc(F)c12 (single isomer, unassigned; isomer-i) [Example 29, cis-N-(3-Fluoropiperidin-4-yl)-1-(2-chloropyridin-4-ylmethyl)-4,7-difluoro-1H-indole-3-carboxamide hydrochloride (Isomer-I)] | 2920
O=C(N[C@H]1CCNC[C@H]1F)c1cn(Cc2ccc(F)cc2)c2cccc(F)c12 (single isomer, unassigned; isomer-i) [Example 30, cis-N-(3-Fluoropiperidin-4-yl)-1-(4-fluorobenzyl)-4-fluoro-1H-indole-3-carboxamide hydrochloride (Isomer-I)] | 1080
O=C(N[C@H]1CCNC[C@H]1F)c1cn(Cc2ccc(F)cc2)c2c(F)ccc(F)c12 (single isomer, unassigned; isomer-i) [Example 31, cis-N-(3-Fluoropiperidin-4-yl)-1-(4-fluorobenzyl)-4,7-difluoro-1H-indole-3-carboxamide hydrochloride (Isomer-I)] | 1610
O=C(N[C@H]1CCNC[C@H]1F)c1cn(Cc2ccccc2F)c2cccc(F)c12 (single isomer, unassigned; isomer-i) [Example 33, cis-N-(3-Fluoropiperidin-4-yl)-1-(2-fluorobenzyl)-4-fluoro-1H-indole-3-carboxamide hydrochloride (Isomer-I)] | 1370
O=C(N[C@H]1CCNC[C@H]1F)c1cn(Cc2ccc(Cl)cc2)c2cccc(F)c12 (single isomer, unassigned; isomer-i) [Example 34, cis-N-(3-Fluoropiperidin-4-yl)-1-(4-chlorobenzyl)-4-fluoro-1H-indole-3-carboxamide hydrochloride (Isomer-I)] | 1390
COc1cccc(Cn2cc(C(=O)N[C@H]3CCNC[C@H]3F)c3c(F)cccc32)c1 (single isomer, unassigned; isomer-i) [Example 35, cis-N-(3-Fluoropiperidin-4-yl)-4-fluoro-1-(3-methoxybenzyl)-1H-indole-3-carboxamide hydrochloride (Isomer-I)] | 1480
COc1ccc(Cn2cc(C(=O)N[C@H]3CCNC[C@H]3F)c3c(F)cccc32)cc1 (single isomer, unassigned; isomer-i) [Example 38, cis-N-(3-Fluoropiperidin-4-yl)-1-(4-methoxybenzyl)-4-fluoro-1H-indole-3-carboxamide hydrochloride (Isomer-I)] | 1450
COc1ccc(Cn2cc(C(=O)N[C@H]3CCNC[C@H]3F)c3c(F)ccc(F)c32)cc1 (single isomer, unassigned; isomer-i) [Example 39, cis-N-(3-Fluoropiperidin-4-yl)-1-(4-methoxybenzyl)-4,7-difluoro-1H-indole-3-carboxamide hydrochloride (Isomer-I)] | 1480
O=C(N[C@H]1CCNC[C@H]1F)c1cn(Cc2ccnc(F)c2)c2cccc(F)c12 (single isomer, unassigned; isomer-i) [Example 44, cis-N-(3-Fluoropiperidin-4-yl)-1-(2-fluoropyridin-4-ylmethyl)-4-fluoro-1H-indole-3-carboxamide hydrochloride (Isomer-I)] | 1310
O=C(N[C@H]1CCNC[C@H]1F)c1cn(Cc2ccc3ncsc3c2)c2cccc(F)c12 (single isomer, unassigned; isomer-i) [Example 45, cis-N-(3-Fluoropiperidin-4-yl)-1-(benzothiazol-6-ylmethyl)-4-fluoro-1H-indole-3-carboxamide hydrochloride (Isomer-I)] | 1160
O=C(NC1CCNCC1F)c1cn(Cc2ccnc(F)c2)c2c(F)ccc(F)c12 (single isomer, unassigned; isomer-ii) [Example 23, cis-N-(3-Fluoropiperidin-4-yl-1-(2-fluoropyridin-4-ylmethyl)-4,7-difluoro-1H-indole-3-carboxamide hydrochloride (Isomer-II)] | 1070
O=C(N[C@@H]1CCNC[C@H]1F)c1cn(Cc2ccnc(F)c2)c2c(F)ccc(F)c12 (single isomer, unassigned; isomer-ii) [Example 25, trans-N-(3-Fluoropiperidin-4-yl)-1-(2-fluoropyridin-4-ylmethyl)-4,7-difluoro-1H-indole-3-carboxamide hydrochloride (Isomer-II)] | 1440
O=C(N[C@H]1CCNC[C@H]1F)c1cn(Cc2ccc(F)cc2)c2c(F)ccc(F)c12 (single isomer, unassigned; isomer-ii) [Example 32, cis-N-(3-Fluoropiperidin-4-yl)-1-(4-fluorobenzyl)-4,7-difluoro-1H-indole-3-carboxamide hydrochloride (Isomer-II)] | 1590
COc1cccc(Cn2cc(C(=O)N[C@H]3CCNC[C@H]3F)c3c(F)cccc32)c1 (single isomer, unassigned; isomer-ii) [Example 36, cis-N-(3-Fluoropiperidin-4-yl)-4-fluoro-1-(3-methoxybenzyl)-1H-indole-3-carboxamide hydrochloride (Isomer-II)] | 1350
COc1ccc(Cn2cc(C(=O)N[C@H]3CCNC[C@H]3F)c3c(F)cccc32)cc1 (single isomer, unassigned; isomer-ii) [Example 37, cis-N-(3-Fluoropiperidin-4-yl)-1-(4-methoxybenzyl)-4-fluoro-1H-indole-3-carboxamide hydrochloride (Isomer-II)] | 1990

Same assay, conditions: in presence of EC20 of acetylcholine; luciferase activity, 4 hours; read-out: hM1 PAM EC50

Compound | EC50 [nM]
Cn1cc(Cn2cc(C(=O)N[C@@H]3CCCC[C@H]3O)c3c(F)cccc32)cn1 [Example 3, N-[(1R,2R)-2-Hydroxycyclohexyl]-1-(1-methyl-1H-pyrazol-4-ylmethyl)-4-fluoro-1H-indole-3-carboxamide] | 1640
Cn1nc(Cn2cc(C(=O)N[C@H]3CCCC[C@@H]3O)c3c(F)cccc32)c2ccccc21 [Example 4] | 1490
O=C(N[C@H]1CCCC[C@@H]1O)c1cn(Cc2ccncc2F)c2cccc(F)c12 [Example 9, N-[(1S,2S)-2-Hydroxycyclohexyl]-1-(3-fluoropyridin-4-ylmethyl)-4-fluoro-1H-indole-3-carboxamide] | 1420
O=C(N[C@H]1CCCC[C@@H]1O)c1cn(Cc2ccnc(F)c2F)c2cccc(F)c12 [Example 13, N-[(1S,2S)-2-Hydroxycyclohexyl]-1-(2,3-difluoropyridin-4-ylmethyl)-4-fluoro-1H-indole-3-carboxamide] | 1380
O=C(N[C@H]1CCCC[C@@H]1O)c1cn(Cc2ccc3ncsc3c2)c2cccc(F)c12 [Example 18, N-[(1S,2S)-2-Hydroxycyclohexyl]-1-(benzothiazol-6-ylmethyl)-4-fluoro-1H-indole-3-carboxamide] | 160
O=C(N[C@H]1CCCC[C@@H]1O)c1cn(Cc2cnn(CCF)c2)c2cccc(F)c12 [Example 19, N-[(1S,2S)-2-Hydroxycyclohexyl]-1-(1-(2-fluoroethyl)-1H-pyrazol-4-ylmethyl)-4-fluoro-1H-indole-3-carboxamide] | 744

Tested on: not listed separately
Assay: Rodent brain penetration study
Assay type: in vivo, Male Wistar rats
Conditions: male, Wistar, rat, oral; 3 mg/kg, p.o.; brain-plasma ratio; read-out: Single dose Rat Brain Penetration (Cb/Cp)
Experimental: WO2015044072A1 patent application discloses indole derivatives as M1 PAM compounds. […] This makes these compounds less ideal for the treatment of CNS disorders.
Rodent Brain Penetration Study
Male Wistar rats (260±40 grams) were used as experimental animals. Three animals were housed in each cage. Animals were given water and food ad libitum throughout the experiment and maintained on a 12 hours light/dark cycle.
Brain penetration was determined in discrete manner in rats. One day prior to dosing day, male Wistar rats were acclimatized and randomly grouped according to their weight. At each time point (0.5, 1 and 2 hours) n=3 animals were used.
The test compounds were suitably preformulated and administered orally at (free base equivalent) 3 mg/kg. Blood samples were removed via cardiac puncture by using isoflurane anesthesia. The animals were sacrificed to collect brain tissue. Plasma was separated and brain samples were homogenized and stored frozen at ˜20° C. until analysis. The concentrations of the test compounds in plasma and brain were determined using LC-MS/MS method.
The test compounds were quantified in plasma and brain homogenate by qualified LC-MS/MS method using suitable extraction technique. The test compounds were quantified in the calibration range of 1-500 ng/mL in plasma and brain homogenate. Study samples were analyzed using calibration samples in the batch and quality control samples spread across the batch.

Compound | Kp
O=C(N[C@H]1CCNC[C@H]1F)c1cn(Cc2ccc(F)cc2)c2cccc(F)c12 (single isomer, unassigned; isomer-i) [Example 30, cis-N-(3-Fluoropiperidin-4-yl)-1-(4-fluorobenzyl)-4-fluoro-1H-indole-3-carboxamide hydrochloride (Isomer-I)] | 1.05 ± 0.53
COc1cccc(Cn2cc(C(=O)N[C@H]3CCNC[C@H]3F)c3c(F)cccc32)c1 (single isomer, unassigned; isomer-i) [Example 35, cis-N-(3-Fluoropiperidin-4-yl)-4-fluoro-1-(3-methoxybenzyl)-1H-indole-3-carboxamide hydrochloride (Isomer-I)] | 0.72 ± 0.03
COc1ccc(Cn2cc(C(=O)N[C@H]3CCNC[C@H]3F)c3c(F)cccc32)cc1 (single isomer, unassigned; isomer-i) [Example 38, cis-N-(3-Fluoropiperidin-4-yl)-1-(4-methoxybenzyl)-4-fluoro-1H-indole-3-carboxamide hydrochloride (Isomer-I)] | 1.03 ± 0.17
